Consider one molecule from patent publication US11331284B2 (UNM Rainforest Innovations, priority 2017, dated 2022).

Series [1] concerns bone marrow derived macrophages from wild type (autophagy, LC3 puncta). The experiment in a line: ambroxol dose response assay, LC3 puncta quantified by Cellomics, wild type cells. The class given is cell-based.
The conditions of series [2]: in humans; reference 1; cited from earlier work.
For series [3], the system named is bone marrow derived macrophages from ATG5 knockouts (autophagy, LC3 puncta). The experiment in a line: ambroxol dose response assay, LC3 puncta quantified by Cellomics, ATG5 knockout cells. It is filed as cell-based. An excerpt:
The inventors next studied the same assay, described above, but in ATG5 knockout cells.

Series [4] has as its system TFEB nuclear translocation. Description: ambroxol induction of TFEB nuclear translocation. The class given is cell-based.

Regarding `Nc1c(Br)cc(Br)cc1CN[C@H]1CC[C@H](O)CC1` [ambroxol, trans-4-[(2-amino-3,5-dibromobenzyl)amino]cyclohexanol], the “concentration as low as which had a positive effect on autophagy” value in series [1] (LC3 puncta, pp242 induction = 100%, t test v. control p=0.025, FIG. 3) came out at 6.25 µM. The “dose response of autophagy induction” value in series [1] (ambroxol 0 to 200 uM, FIG. 3) is “higher ambroxol concentrations result in higher induction of autophagy”; in series [3] (FIG. 4), “clear dose response”. Moreover, the plasma half-life in series [2] is 3.72 h. Besides, the “concentration as low as which gave appreciable increases in autophagy” value in series [3] (LC3 puncta, t test v. control p=0.0008, FIG. 4) was found to be 6.25 µM. Besides, the “concentration at which significant increases were observed” value in series [4] (FIGS. 5 and 6) was determined as 25 µM. Moreover, the EC50 in series [4] (read-out: concentration giving 50% of maximal autophagy induced by ambroxol (sigmoidal fit), both data sets, FIGS. 5 and 6) was ~50 µM.
